ChEMBL document CHEMBL3044728, “Synthesis and biological activity of new (E)-alpha-(Methoxyimino)benzeneacetate derivatives containing a substituted pyrazole ring” (2010)

Columns and labels:
Type in all cases: functional
Phytophthora infestans [1] = assay: Antifungal activity against Phytophthora infestans assessed as inhibition at 0.92 mg/L relative to control
Phytophthora infestans [2] = assay: Antifungal activity against Phytophthora infestans assessed as inhibition at 25 mg/L relative to control
Tetranychus cinnabarinus = assay: Acaricidal activity against Tetranychus cinnabarinus (carmine spider mite) at 600 mg/L relative to control
Pyricularia oryzae [3] = assay: Antifungal activity against Magnaporthe oryzae assessed as inhibition at 25 mg/L relative to control
[4] = test system: Pseudoperonospora cubensis; assay: Antifungal activity against Pseudoperonospora cubensis assessed as inhibition at 400 mg/L relative to control
[5] = test system: Pseudoperonospora cubensis; assay: Antifungal activity against Pseudoperonospora cubensis assessed as inhibition at 25 mg/L relative to control
Blumeria graminis [6] = assay: Antifungal activity against Blumeria graminis assessed as inhibition at 400 mg/L relative to control
Blumeria graminis [7] = assay: Antifungal activity against Blumeria graminis assessed as inhibition at 1.56 mg/L relative to control
Pyricularia oryzae [8] = assay: Antifungal activity against Magnaporthe oryzae assessed as inhibition at 0.92 mg/L relative to control
Blumeria graminis [9] = assay: Antifungal activity against Blumeria graminis assessed as inhibition at 6.25 mg/L relative to control
Leucania = assay: Insecticidal activity against Leucania venalba at 600 mg/L relative to control
Myzus persicae = assay: Insecticidal activity against Myzus persicae (green peach aphid) at 600 mg/L relative to control
[10] = test system: Pseudoperonospora cubensis; assay: Antifungal activity against Pseudoperonospora cubensis assessed as inhibition at 6.25 mg/L relative to control
Culex pipiens pallens = assay: Insecticidal activity against Culex pipiens pallens (mosquito) at 600 mg/L relative to control

| SMILES | inhibition at 0.92 µg/mL (Phytophthora infestans [1]) [%] | inhibition at 25 µg/mL (Phytophthora infestans [2]) [%] | Activity (Tetranychus cinnabarinus) [%] | inhibition at 25 µg/mL (Pyricularia oryzae [3]) [%] | inhibition at 400 µg/mL [4] [%] | inhibition at 25 µg/mL [5] [%] | inhibition at 400 µg/mL (Blumeria graminis [6]) [%] | inhibition at 1.56 µg/mL (Blumeria graminis [7]) [%] | inhibition at 0.92 µg/mL (Pyricularia oryzae [8]) [%] | inhibition at 6.25 µg/mL (Blumeria graminis [9]) [%] | Activity (Leucania) [%] | Activity (Myzus persicae) [%] | inhibition at 6.25 µg/mL [10] [%] | Activity (Culex pipiens pallens) [%] |
| --- | --- | --- | --- | --- | --- | --- | --- | --- | --- | --- | --- | --- | --- | --- |
| CCOc1ccc(-c2nn(C)c(OCc3ccccc3/C(=N\OC)C(=O)OC)c2C)cc1 | 50 | 100 | 100 | 100 | 100 | 40 | 100 | 50 | 50 | 100 | – | – | – | – |
| CO/N=C(/C(=O)OC)c1ccccc1COc1c(C)c(-c2cc(C)ccc2C)nn1C | 60 | 100 | – | 100 | 100 | 80 | 100 | 20 | 100 | 40 | 100 | 100 | 40 | – |
| CNC(=O)/C(=N/OC)c1ccccc1COc1cc(-c2ccc(C)c(C)c2)nn1C | 80 | 100 | 100 | 100 | 100 | 100 | 100 | 40 | 50 | 100 | – | 100 | 85 | – |
| CNC(=O)/C(=N/OC)c1ccccc1COc1c(C)c(-c2ccc(C)cc2C)nn1C | 100 | 100 | – | 100 | 100 | 100 | 100 | 65 | 50 | 100 | – | – | 100 | – |
| CO/N=C(/C(=O)OC)c1ccccc1COc1c(C)c(-c2ccc(C)cc2C)nn1C | 100 | 100 | – | 100 | 100 | 100 | 100 | 75 | 80 | 100 | – | – | 98 | – |
| CO/N=C(/C(=O)OC)c1ccccc1COc1cc(-c2ccc(C)c(C)c2)nn1C | 80 | 100 | 100 | 100 | 98 | 40 | 100 | – | 50 | 30 | – | 100 | – | – |
| CNC(=O)/C(=N/OC)c1ccccc1COc1c(C)c(-c2ccc(OCC(F)(F)F)cc2)nn1C | 50 | 100 | – | 80 | 100 | 80 | 100 | 40 | 50 | 100 | – | – | 30 | – |
| CNC(=O)/C(=N/OC)c1ccccc1COc1cc(-c2ccc(Cl)cc2)nn1C | – | – | – | 0 | 100 | 100 | 100 | 0 | – | 40 | – | 100 | 60 | 100 |
| CNC(=O)/C(=N/OC)c1ccccc1COc1c(C)c(-c2cc(C)ccc2C)nn1C | 100 | 100 | – | 100 | 100 | 100 | 100 | 0 | 100 | 40 | – | 100 | 50 | – |
| CO/N=C(/C(=O)OC)c1ccccc1COc1c(C)c(-c2ccc(C)c(C)c2)nn1C | 100 | 100 | – | 100 | 100 | 75 | 100 | 60 | 80 | 100 | – | – | 70 | – |
| CO/N=C(/C(=O)OC)c1ccccc1COc1cc(-c2ccc(C)cc2C)nn1C | 100 | 100 | – | 100 | 95 | 90 | 100 | – | 0 | 65 | – | 100 | 65 | – |
| CNC(=O)/C(=N/OC)c1ccccc1COc1c(C)c(-c2ccc(OC)cc2)nn1C | 50 | 80 | – | 100 | 98 | 85 | 100 | 75 | 50 | 100 | 100 | – | 55 | – |
| CO/N=C(/C(=O)OC)c1ccccc1COc1cc(-c2ccccc2)nn1C | – | 0 | – | 0 | 95 | 70 | 70 | – | – | – | – | 100 | – | – |
| CNC(=O)/C(=N/OC)c1ccccc1COc1cc(-c2ccccc2OC)nn1C | – | 0 | – | 100 | 75 | 10 | 100 | 45 | 0 | 100 | – | 100 | – | – |
| CNC(=O)/C(=N/OC)c1ccccc1COc1cc(-c2ccc(C)cc2C)nn1C | 100 | 100 | – | 100 | 100 | 100 | 100 | 30 | 50 | 100 | – | – | 70 | – |
| CO/N=C(/C(=O)OC)c1ccccc1COc1cc(-c2ccc(Cl)cc2)nn1C | 50 | 80 | – | 80 | 100 | 90 | 100 | – | – | 40 | – | – | 80 | 100 |
